Data on 21 compounds can be found in ChEMBL document CHEMBL1145616, “Pyridyl-phenyl ether monoamine reuptake inhibitors: Impact of lipophilicity on dual SNRI pharmacology and off-target promiscuity” (Bioorg Med Chem Lett, 2008).

Series [1] addresses Sodium-dependent serotonin transporter (Homo sapiens, UniProt P31645). Nature of the series: Inhibition of [3H]5-HT uptake at human recombinant 5HT transporter expressed in HEK293 cells. It is filed as cell-based.
Series [2] concerns the target Sodium-dependent noradrenaline transporter (Homo sapiens, UniProt P23975). Briefly: Inhibition of [3H]NA uptake at human recombinant NA transporter expressed in HEK293 cells. It is filed as cell-based.
Series [3] deals with Sodium-dependent dopamine transporter (Homo sapiens, UniProt Q01959). Briefly: Inhibition of [3H]DA uptake at human recombinant DAT expressed in HEK293 cells. It is filed as cell-based.
Sodium-dependent dopamine transporter, sequence (Q01959 whole entry): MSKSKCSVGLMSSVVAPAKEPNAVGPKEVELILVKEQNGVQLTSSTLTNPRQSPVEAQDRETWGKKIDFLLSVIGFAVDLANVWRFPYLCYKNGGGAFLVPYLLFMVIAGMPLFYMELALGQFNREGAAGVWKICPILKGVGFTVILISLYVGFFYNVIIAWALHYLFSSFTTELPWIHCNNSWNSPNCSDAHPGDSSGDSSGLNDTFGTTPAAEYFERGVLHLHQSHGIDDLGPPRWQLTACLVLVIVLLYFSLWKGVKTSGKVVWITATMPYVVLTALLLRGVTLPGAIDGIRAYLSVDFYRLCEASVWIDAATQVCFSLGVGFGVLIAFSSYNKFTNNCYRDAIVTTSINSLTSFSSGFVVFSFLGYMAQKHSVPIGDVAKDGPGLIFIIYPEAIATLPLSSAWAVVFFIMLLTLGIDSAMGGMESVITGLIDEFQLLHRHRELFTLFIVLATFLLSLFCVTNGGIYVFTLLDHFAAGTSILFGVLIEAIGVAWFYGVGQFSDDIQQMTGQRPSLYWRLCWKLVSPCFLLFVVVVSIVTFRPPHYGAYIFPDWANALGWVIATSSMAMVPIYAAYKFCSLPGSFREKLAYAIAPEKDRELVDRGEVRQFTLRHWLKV
Series [4] is described as follows: Intrinsic clearance per 10^6 cells in human hepatocytes. It is filed as ADME, cell-based, Liver, Hepatocyte.
Series [5] addresses Cytochrome P450 3A4 (Homo sapiens, UniProt P08684). Nature of the series: Inhibition of CYP3A4. It is filed as ADME.
Series [6] concerns the target Cytochrome P450 2D6 (Homo sapiens, UniProt P10635). Briefly: Inhibition of CYP2D6. It is filed as ADME.
Series [7] can be described thus: Intrinsic clearance in human liver microsomes. It is filed as ADME, Microsome. A general note: Liver microsomes are vesicles of endoplasmic reticulum, rich in cytochrome P450 enzymes.

Sodium-dependent noradrenaline transporter, sequence (P23975 whole entry): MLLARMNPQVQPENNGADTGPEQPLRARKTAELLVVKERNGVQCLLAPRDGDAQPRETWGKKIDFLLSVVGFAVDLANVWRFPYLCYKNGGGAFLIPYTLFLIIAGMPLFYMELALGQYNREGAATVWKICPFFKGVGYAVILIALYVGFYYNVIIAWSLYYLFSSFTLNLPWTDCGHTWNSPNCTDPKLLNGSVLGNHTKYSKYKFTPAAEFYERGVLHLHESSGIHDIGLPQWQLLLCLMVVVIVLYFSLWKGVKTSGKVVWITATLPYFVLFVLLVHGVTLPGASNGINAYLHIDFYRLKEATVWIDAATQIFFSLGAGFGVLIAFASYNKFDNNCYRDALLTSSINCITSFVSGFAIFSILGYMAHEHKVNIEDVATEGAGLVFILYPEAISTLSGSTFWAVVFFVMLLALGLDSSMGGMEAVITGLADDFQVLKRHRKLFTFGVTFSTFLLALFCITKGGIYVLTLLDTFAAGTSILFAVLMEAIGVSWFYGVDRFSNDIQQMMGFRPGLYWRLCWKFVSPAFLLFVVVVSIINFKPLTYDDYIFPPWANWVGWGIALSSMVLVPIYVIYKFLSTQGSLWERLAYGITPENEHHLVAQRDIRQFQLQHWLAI
Sodium-dependent serotonin transporter, sequence (P31645 whole entry): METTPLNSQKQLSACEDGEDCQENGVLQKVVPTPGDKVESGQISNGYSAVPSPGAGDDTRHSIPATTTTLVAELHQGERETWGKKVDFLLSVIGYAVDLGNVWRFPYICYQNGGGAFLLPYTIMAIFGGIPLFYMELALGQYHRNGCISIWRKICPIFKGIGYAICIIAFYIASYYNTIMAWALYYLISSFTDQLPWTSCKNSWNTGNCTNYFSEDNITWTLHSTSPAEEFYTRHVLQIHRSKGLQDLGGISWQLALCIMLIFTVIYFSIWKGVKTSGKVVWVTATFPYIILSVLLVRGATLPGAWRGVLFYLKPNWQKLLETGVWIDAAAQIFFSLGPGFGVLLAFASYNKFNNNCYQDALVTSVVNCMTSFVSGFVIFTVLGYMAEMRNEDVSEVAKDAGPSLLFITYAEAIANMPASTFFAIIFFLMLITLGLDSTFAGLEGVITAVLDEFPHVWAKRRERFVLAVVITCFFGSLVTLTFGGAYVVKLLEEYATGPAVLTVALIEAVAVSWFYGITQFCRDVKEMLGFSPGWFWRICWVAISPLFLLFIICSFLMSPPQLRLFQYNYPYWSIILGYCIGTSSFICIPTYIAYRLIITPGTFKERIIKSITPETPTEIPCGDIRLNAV
Cytochrome P450 2D6, sequence (P10635 whole entry): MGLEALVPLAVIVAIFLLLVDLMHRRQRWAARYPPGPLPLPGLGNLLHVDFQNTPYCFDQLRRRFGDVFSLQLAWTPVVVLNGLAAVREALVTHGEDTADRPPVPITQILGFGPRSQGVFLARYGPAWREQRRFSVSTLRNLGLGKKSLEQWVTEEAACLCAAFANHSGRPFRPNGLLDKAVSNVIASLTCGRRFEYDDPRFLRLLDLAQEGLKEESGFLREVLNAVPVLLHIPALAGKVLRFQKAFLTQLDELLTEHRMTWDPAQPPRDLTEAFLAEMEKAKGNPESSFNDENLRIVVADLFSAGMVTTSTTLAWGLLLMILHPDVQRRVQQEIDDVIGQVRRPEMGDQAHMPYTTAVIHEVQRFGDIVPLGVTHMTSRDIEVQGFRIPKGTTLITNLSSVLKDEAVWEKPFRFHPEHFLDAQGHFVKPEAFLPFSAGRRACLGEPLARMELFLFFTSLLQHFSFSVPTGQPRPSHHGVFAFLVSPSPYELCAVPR
Cytochrome P450 3A4, sequence (P08684 whole entry): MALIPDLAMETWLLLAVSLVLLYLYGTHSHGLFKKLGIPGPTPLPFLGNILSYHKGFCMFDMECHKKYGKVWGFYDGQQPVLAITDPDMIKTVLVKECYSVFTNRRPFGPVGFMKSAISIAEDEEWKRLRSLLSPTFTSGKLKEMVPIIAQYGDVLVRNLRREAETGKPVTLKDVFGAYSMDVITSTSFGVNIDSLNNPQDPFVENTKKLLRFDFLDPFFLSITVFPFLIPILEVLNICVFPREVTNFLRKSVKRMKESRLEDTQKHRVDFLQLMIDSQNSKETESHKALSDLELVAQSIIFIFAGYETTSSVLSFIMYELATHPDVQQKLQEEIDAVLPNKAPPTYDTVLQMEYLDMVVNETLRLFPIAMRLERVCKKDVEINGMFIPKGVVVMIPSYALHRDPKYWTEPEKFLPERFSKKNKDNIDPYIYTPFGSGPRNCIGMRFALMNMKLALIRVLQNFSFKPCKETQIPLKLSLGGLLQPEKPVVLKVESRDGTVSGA

Take `CNCc1cnccc1Oc1ccc(Cl)cc1Br`: the figures for the IC50 in series [1] and in series [2] were 23 nM and 85 nM, respectively.
With `CN(C)Cc1cnccc1Oc1ccc(Cl)cc1Br`, the concentration for half-maximal inhibition (IC50) in series [1] stood at 4 nM; in series [2] it was 26 nM; in series [3], 1970 nM.
As to `CNCc1cnc(C)cc1Oc1ccc(Cl)cc1C`, the IC50 was found to be 6 nM in series [1] and 51 nM in series [2].
As for `CCc1cc(Cl)ccc1Oc1cc(C)ncc1CN(C)C`, the IC50 in series [1] was 19 nM; in series [2] it was 30 nM; in series [3], greater than 34000 nM.
Take `CNCc1cnccc1Oc1ccc(Cl)cc1C`: the IC50 in series [1] came out at 14 nM; in series [2] it was 246 nM.
`Cc1cc(Oc2ccc(Cl)cc2C)c(CN(C)C)cn1` returned a hepatocyte CLint in series [4] of less than 5 µL/min/1e6 cells. For the same compound, the IC50 in series [5] was greater than 10000 nM; in series [6], greater than 10000 nM; in series [1] it was 6 nM; in series [2], 26 nM; in series [3], 1680 nM. In series [7], this compound yielded a microsomal CLint of less than 7 µL/min/mg.
`CCc1cc(Cl)ccc1Oc1ccncc1CNC`: the values for the IC50 in series [1] and in series [2] were 46 nM and 86 nM, respectively.
Turning to `COc1cc(Cl)ccc1Oc1ccncc1CN(C)C`, the IC50 in series [1] stood at 6 nM; in series [2] it was 47 nM; in series [3], 10200 nM.
For the compound `CNCc1cnccc1Oc1ccc(Cl)cc1OC`, the IC50 came out at 14 nM in series [1] and 282 nM in series [2].
The corresponding values for `CNCc1cnccc1Oc1ccc(Cl)cc1Cl` are 39 nM and 159 nM.
As for `CN(C)Cc1cnccc1Oc1ccc(Cl)cc1Cl`, the IC50 in series [1] was 8 nM; in series [2] it was 25 nM; in series [3], 2430 nM.
As to `CCOc1cc(Cl)ccc1Oc1ccncc1CNC`, the IC50 in series [1] came to 24 nM; in series [2], 394 nM.
Turning to `CNCc1cnc(C)cc1Oc1ccc(C)cc1OC`, the IC50 in series [1] came out at 18 nM; in series [2], 257 nM.
The like results for `CNCc1cnc(C)cc1Oc1ccc(F)cc1C` were, in that order, 231 nM and greater than 400 nM.
`Cc1cc(Cl)ccc1Oc1ccncc1CN(C)C`: the figures for the IC50 in series [1], in series [2] and in series [3] were 3 nM, 36 nM and 3230 nM, respectively.
The corresponding values for `CCc1cc(Cl)ccc1Oc1ccncc1CN(C)C` are 11 nM, 18 nM and greater than 38000 nM.
With `CNCc1cc(C(=O)N(C)C)ccc1Oc1ccc(Cl)cc1OC`, in series [4], the hepatocyte CLint was found to be 21 µL/min/1e6 cells. Further, the figures for the IC50 in series [1] and in series [3] were 7 nM and greater than 4000 nM, respectively.
With `CNCc1cnc(C)cc1Oc1ccc(Cl)cc1Br`, the results for the IC50 in series [1] and in series [2] were 10 nM and 38 nM, respectively.
On to `CNCc1cnc(C)cc1Oc1ccc(Cl)cc1OC`, for which the IC50 in series [1] worked out at 4 nM; in series [2] it was 83 nM.
In the case of `COc1cc(Cl)ccc1Oc1cc(C)ncc1CN(C)C`, in series [4], the hepatocyte CLint was less than 5 µL/min/1e6 cells. For the same compound, the IC50 in series [5] is greater than 10000 nM; in series [6], greater than 10000 nM; in series [1], 13 nM; in series [2], 26 nM; in series [3], 5040 nM. The compound also gave a microsomal CLint in series [7] of less than 7 µL/min/mg.
As for `CCc1cc(Cl)ccc1Oc1cc(C)ncc1CNC`, the figures for the IC50 in series [1], in series [2] and in series [3] were 20 nM, 22 nM and 34100 nM, respectively.

As a reminder, the IC50 is the concentration needed to halve the response being measured. In general, hepatocyte CLint refers to the rate of metabolic loss divided by the concentration. Low values mean greater metabolic stability, high ones faster metabolism. In general, microsomal CLint refers to a measure of how fast metabolising enzymes remove a compound, apart from limits set by blood flow. A higher microsomal CLint goes with faster metabolism.
